Assays:
human genomic DNA = assay: Agarose gel electrophoresis of human genomic DNA treated with cATC derivatives; assay type: binding; settings: 1% agarose gel; EtBr control
Excerpt: (§1) Further, we examined the effect of cATC derivatives (6a/6e/6j/6n) on the ct-DNA duplex structure by circular dichroism (CD) studies. We recorded the CD spectra of ct-DNA with the increasing concentration of cATC derivatives (SM, Fig. S24). […] Next, we examined the binding site of cATC derivative (ligand) at the DNA duplex structure by using AutoDock-Vina, a well-reported computational docking program. We performed docking of cATC derivatives (6a/6d/6k) crystal structure (ligand) with dodecamer DNA duplex crystal structure (PDB ID-1BNA) as the receptor. Our docking results strongly support the non-covalent interaction of cATC derivatives (6a/6d/6k) at the DNA-minor groove with the binding affinity ~7.0 Kcal/mole, mostly hydrophobic interactions (SM, Figs. S25–7, Table S8). […] Overall, cATC derivatives non-covalently bind with DNA duplex through the non-intercalative mode without affecting the native duplex structure. Next, we examined the DNA binding affinity of cATC derivatives (6e/6j/6n) by gel-electrophoresis. The different concentrations of human genomic DNA were treated with EtBr (control) and cATC derivatives (6e/6j/6n) and ran on 1% agarose gel (SM, Fig. S28A–D). […] Further, the Microscale thermophoresis (MST) technique was used to calculate the binding affinities of cATC derivatives (6e/6j/6n) (20 µM) with varying concentrations of human genomic DNA (40 fM to 75 pM).

ct-DNA duplex = assay: Circular dichroism of ct-DNA with cATC derivatives; assay type: binding; settings: increasing concentration of cATC derivatives
Excerpt: as §1

HeLa cells [1] = assay: Scratch (wound healing) assay in HeLa; assay type: cell-based; settings: 6e 18 μM, 6j 19.23 μM, 6n 18.92 μM, 0 h to 24 h
Procedure: HeLa and HEK293 cells (0.25 × 10^6) were seeded into 12-well plates to grow in a monolayer for 24 h. A Scratch was made in the middle of the well using a sterile 200 µl pipette tip. The detached cells were removed by washing with 1x DPBS. The cell monolayers were treated for 18 h with 19 µM of 6n and 6j, and 18 µM of 6e with 10% DMEM. DMSO with 10% DMEM was used as a control. Images were collected at 0 h and 24 h under an inverted microscope (Ziess, Germany) at (4×) magnification. Cell migration was analyzed using ImageJ (NIH) software.

HeLa cells [2] = assay: Confocal microscopy localization in HeLa cells; assay type: cell-based; settings: IC50 concentrations, 12-18 h
Procedure: Herein we have shown that cATC fluorescent derivatives bind with ct-DNA in the non-intercalating mode. Thus we assumed that cATC derivatives might bind to the DNA, localizing within the nucleus and affecting the cell division. We studied the localization of fluorescent signals in HeLa cells using IC50 concentrations of compounds (6e, 6j, and 6n) at different time points using a confocal microscope. For all the compounds initially (at 12 h), the signal was present in the cytoplasm and the nucleus (Fig. 6A–C). With increasing time, the signal became more intense in the nucleus (Fig. 6A–D).
HeLa cells (60,000) were grown onto a coverslip (Coverglass for cell Growth™, Fisherbrand, USA) in a 24-well plate. […] Thereafter, cells were fixed in 4% paraformaldehyde (Himedia), washed with ice-cold 1X PBS, permeabilized with 0.25% Triton X-100 (Sigma), and washed with 0.1% PBST. The cell was counter stained with 49,6-diamidino-2-phenylindole, dihydrochloride (DAPI, Invitrogen) and mounted using one drop of ProLong® Gold antifade reagent (Invitrogen) on a slide. Images were acquired by fluorescence microscope (Leica SP8 TCS) and analyzed using ImageJ (NIH).

HEK293 cells = assay: MTS cell viability assay in HEK293; assay type: cell-based; settings: HEK293, 30 μM, 18 h
Procedure: (§2) We investigated the effect of nine cATC derivatives (6b/6d/6e/6f/6i/6j/6k/6l/6n) on cell viability in cancer cell-line HeLa and transformed normal cell-line HEK293. We treated cells with the varying concentrations of the compounds ranging from 10 nM to 50 μM for 18 h (optimized).
(§3) MTS assay (CellTiter 96® AQueous One Solution Cell Proliferation Assay (Promega, USA) was used to determine the cell viability. HeLa and HEK293 cells (20,000 cells in each well) were plated in 96 well plate and treated with 6e, 6j, and 6n varying concentrations of the compounds ranging from 10 nM to 50 μM for 18 h. The assay was carried out according to the manufacturer’s instructions. Finally, the plate was read in Varioskan™ LUX multimode microplate reader (Thermo Fisher Scientific) at 490 nm.
(§4) Cell scavenging activity was calculated using the following formula:
(§5) OD(490nm) (control) – OD(490nm) (Test)/OD(490nm) (control) × 100%
(§6) Cell Viability of the cell was calculated using the following formula: […]

[3] = MTS cell viability assay in HEK293; assay type: cell-based; settings: human, HEK293 cells, HEK293, 30 μM
Procedure: as §2, §3, §4, §5, §6

4T1 cell derived tumor = assay: 4T1 xenograft tumor growth in Balb/C mice; assay type: in vivo, mouse; settings: Balb/C 4T1 model, 6e 1 mg/kg/day, 6j 0.5 mg/kg/day, 6n 1 mg/kg/day
Procedure: To understand the potential and tolerance of 6e, 6j, and 6n compounds using in vivo system, we used Balb/C 4T1 cell line xenograft mouse model. Treatment was initiated after tumors reached a mean value of 20.47 mm^3 (day 8) and treated with 6e, 6j, and 6n at a dosage of 1 mg/kg/day, 0.5 mg/kg/day, and 1 mg/kg/day, respectively. Body weight and activity were observed three days post injection, every alternative day. […] Based on this study, we deduced that these compounds are well tolerated by the animals.
All animal experiments were approved by the Institutional Animal Ethics Committee, NISER, India (AH-214). Female BALB/c mice (aged 6–8 weeks, 18–20 g) were injected with 1 × 10^6 4T1 breast cancer cells into the mammary fat pad. After one week, 6j (0.5 mg/kg), 6e (1 mg/kg) and 6n (1 mg/kg) compounds were injected intraperitoneally in mice at the interval of every 24 h for a period of 21 days. Thereafter, the mice were sacrificed and the xenograft tumors were removed, weighed, and photographed.

SMILES: Cc1cccc(C2C(C(=O)[O-])N(CCc3ccccc3)c3ccccc[c+]3N2Cc2ccccc2)c1 (stereo not drawn) [Compound 6e]
- visibility of DNA-bound compound on agarose gel under UV light (human genomic DNA): signal was equivalent to EtBr
- effect on B-type duplex CD spectrum of ct-DNA (ct-DNA duplex): almost remained unchanged
- effect on cell migration in scratch wound (HeLa cells [1]): inhibited cell migration significantly
- cellular localization of fluorescent signal (HeLa cells [2]): penetrate the cell membrane and localize to the nucleus
- Growth inhibition (HEK293 cells): 61.1%
- viability at 18 h, 30 µM [3]: 38.8%
- tumor growth / tumor size (4T1 cell derived tumor; day 8 till day 20): inhibit tumor growth in vivo
- behavior/activity versus control group (4T1 cell derived tumor; intraperitoneal): normal behavior/activity
- body weight versus control group (4T1 cell derived tumor; intraperitoneal): no significant difference in body weight

Source: paper PMC9814901, “One-pot synthesis of cyclic-aminotropiminium carboxylate derivatives with DNA binding and anticancer properties” (Communications Chemistry, 2022)
